“And” between values parts separate entries of the source, which are not always exact repeats. Equal entries are not always repeated. Toxic doses and inconclusive results are not listed. No stated cut-off is given here; in the data, active means T/C of 150% or more; inactive means T/C below 125%.
Tested on: L1210 leukemia ip in BDF1 mice, survival T/C
Experiment: NCI In Vivo Anticancer Drug Screen. Data for tumor model L1210 Leukemia (intraperitoneal) in B6D2F1 (BDF1) mice
Settings: higher = longer survival
Procedure, shortened: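 Tumor cells were implanted, animals were treated, and survival was followed. The result divides the treated measurement by the vehicle-control measurement.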

Measured: T/C

O=C1C=CN(C2OC(CO)C(O)C2O)C(=O)C1 (stereo unspecified)
inactive: endpoint: mean survival time, dose: 0.75 mg/kg/injection, schedule: Q01DX009 (ip), vehicle: saline 117 % of control | endpoint: mean survival time, dose: 1.5 mg/kg/injection, schedule: Q01DX009 (ip), vehicle: saline 117 % of control | endpoint: mean survival time, dose: 4.8 mg/kg/injection, schedule: Q01DX009 (ip), vehicle: saline 120 % of control | endpoint: mean survival time, dose: 7.8 mg/kg/injection, schedule: Q01DX005 (ip), vehicle: other 107 % of control | endpoint: mean survival time, dose: 15.75 mg/kg/injection, schedule: Q01DX005 (ip), vehicle: other 116 % of control | endpoint: mean survival time, dose: 22.0 mg/kg/injection, schedule: Q01DX009 (ip), vehicle: saline 124 % of control | endpoint: mean survival time, dose: 31.25 mg/kg/injection, schedule: Q01DX005 (ip), vehicle: other 123 % of control | endpoint: mean survival time, dose: 62.5 mg/kg/injection, schedule: Q01DX005 (ip), vehicle: other 124 % of control | endpoint: mean survival time, dose: 100.0 mg/kg/injection, schedule: Q01DX001 (ip), vehicle: saline 105 % of control | endpoint: mean survival time, dose: 100.0 mg/kg/injection, schedule: Q04DX003 (ip), vehicle: saline 108 % of control | endpoint: mean survival time, dose: 200.0 mg/kg/injection, schedule: Q01DX001 (ip), vehicle: saline 114 % of control | endpoint: mean survival time, dose: 200.0 mg/kg/injection, schedule: Q04DX003 (ip), vehicle: saline 119 % of control | endpoint: mean survival time, dose: 400.0 mg/kg/injection, schedule: Q01DX001 (ip), vehicle: saline 105 % of control | endpoint: mean survival time, dose: 400.0 mg/kg/injection, schedule: Q01DX009 (ip), vehicle: saline 115 % of control | endpoint: mean survival time, dose: 400.0 mg/kg/injection, schedule: Q04DX003 (ip), vehicle: saline 116 % of control | endpoint: median survival time, dose: 6.25 mg/kg/injection, schedule: Q01DX009 (ip), vehicle: saline 122 % of control | endpoint: median survival time, dose: 12.5 mg/kg/injection, schedule: Q01DX009 (ip), vehicle: saline 122 % of control | endpoint: median survival time, dose: 16.0 mg/kg/injection, schedule: Q03HX008 (ip), vehicle: saline 105 % of control | endpoint: median survival time, dose: 16.0 mg/kg/injection, schedule: Q03HX016 (ip), vehicle: saline 103 % of control | endpoint: median survival time, dose: 32.0 mg/kg/injection, schedule: Q01DX009 (sc), vehicle: saline 118 % of control | endpoint: median survival time, dose: 32.0 mg/kg/injection, schedule: Q03HX008 (ip), vehicle: saline 106 % of control | endpoint: median survival time, dose: 32.0 mg/kg/injection, schedule: Q03HX016 (ip), vehicle: saline 101 % of control | endpoint: median survival time, dose: 64.0 mg/kg/injection, schedule: Q01DX009 (sc), vehicle: saline 123 % of control | endpoint: median survival time, dose: 64.0 mg/kg/injection, schedule: Q03HX008 (ip), vehicle: saline 103 % of control | endpoint: median survival time, dose: 64.0 mg/kg/injection, schedule: Q03HX016 (ip), vehicle: saline 103 % of control | endpoint: median survival time, dose: 64.0 mg/kg/injection, schedule: Q04DX003 (ip), vehicle: saline 103 % of control | endpoint: median survival time, dose: 74.0 mg/kg/injection, schedule: Q01DX009 (oral), vehicle: saline 116 % of control | endpoint: median survival time, dose: 110.0 mg/kg/injection, schedule: Q01DX009 (oral), vehicle: saline 100 % of control | endpoint: median survival time, dose: 128.0 mg/kg/injection, schedule: Q01DX001 (ip), vehicle: saline 98 % of control | endpoint: median survival time, dose: 128.0 mg/kg/injection, schedule: Q01DX009 (oral), vehicle: saline 111 % of control | endpoint: median survival time, dose: 128.0 mg/kg/injection, schedule: Q03HX008 (ip), vehicle: saline 108 % of control | endpoint: median survival time, dose: 128.0 mg/kg/injection, schedule: Q03HX016 (ip), vehicle: saline 110 % of control | endpoint: median survival time, dose: 128.0 mg/kg/injection, schedule: Q04DX003 (ip), vehicle: saline 104 % of control | endpoint: median survival time, dose: 128.0 mg/kg/injection, schedule: Q04DX003 (oral), vehicle: saline 104 % of control and 110 % of control | endpoint: median survival time, dose: 128.0 mg/kg/injection, schedule: Q04DX003 (sc), vehicle: saline 112 % of control | endpoint: median survival time, dose: 128.0 mg/kg/injection, schedule: Q08DX002 (ip), vehicle: saline 94 % of control | endpoint: median survival time, dose: 164.0 mg/kg/injection, schedule: Q01DX009 (oral), vehicle: saline 111 % of control | endpoint: median survival time, dose: 170.0 mg/kg/injection, schedule: Q04DX003 (ip), vehicle: saline 111 % of control | endpoint: median survival time, dose: 248.0 mg/kg/injection, schedule: Q01DX009 (oral), vehicle: saline 100 % of control | endpoint: median survival time, dose: 256.0 mg/kg/injection, schedule: Q01DX001 (ip), vehicle: saline 105 % of control | endpoint: median survival time, dose: 256.0 mg/kg/injection, schedule: Q01DX009 (oral), vehicle: saline 107 % of control and 110 % of control | endpoint: median survival time, dose: 256.0 mg/kg/injection, schedule: Q03HX008 (ip), vehicle: saline 116 % of control | endpoint: median survival time, dose: 256.0 mg/kg/injection, schedule: Q03HX016 (ip), vehicle: saline 122 % of control | endpoint: median survival time, dose: 256.0 mg/kg/injection, schedule: Q04DX003 (ip), vehicle: saline 112 % of control | endpoint: median survival time, dose: 256.0 mg/kg/injection, schedule: Q04DX003 (oral), vehicle: saline 117 % of control and 123 % of control | endpoint: median survival time, dose: 256.0 mg/kg/injection, schedule: Q04DX003 (sc), vehicle: saline 120 % of control | endpoint: median survival time, dose: 256.0 mg/kg/injection, schedule: Q08DX002 (ip), vehicle: saline 97 % of control | endpoint: median survival time, dose: 260.0 mg/kg/injection, schedule: Q04DX003 (ip), vehicle: saline 111 % of control | endpoint: median survival time, dose: 512.0 mg/kg/injection, schedule: Q01DX001 (ip), vehicle: saline 100 % of control | endpoint: median survival time, dose: 512.0 mg/kg/injection, schedule: Q01DX009 (oral), vehicle: saline 97 % of control and 100 % of control | endpoint: median survival time, dose: 512.0 mg/kg/injection, schedule: Q04DX003 (ip), vehicle: saline 122 % of control | endpoint: median survival time, dose: 512.0 mg/kg/injection, schedule: Q04DX003 (oral), vehicle: saline 105 % of control | endpoint: median survival time, dose: 512.0 mg/kg/injection, schedule: Q04DX003 (sc), vehicle: saline 119 % of control | endpoint: median survival time, dose: 512.0 mg/kg/injection, schedule: Q08DX002 (ip), vehicle: saline 95 % of control | endpoint: median survival time, dose: 580.0 mg/kg/injection, schedule: Q04DX003 (ip), vehicle: saline 111 % of control | endpoint: median survival time, dose: 600.0 mg/kg/injection, schedule: Q01DX009 (ip), vehicle: saline 110 % of control | endpoint: median survival time, dose: 1024.0 mg/kg/injection, schedule: Q01DX001 (ip), vehicle: saline 101 % of control | endpoint: median survival time, dose: 1024.0 mg/kg/injection, schedule: Q01DX009 (oral), vehicle: saline 95 % of control | endpoint: median survival time, dose: 1024.0 mg/kg/injection, schedule: Q08DX002 (ip), vehicle: saline 106 % of control | endpoint: median survival time, dose: 2048.0 mg/kg/injection, schedule: Q01DX001 (ip), vehicle: saline 111 % of control | endpoint: median survival time, dose: 2048.0 mg/kg/injection, schedule: Q08DX002 (ip), vehicle: saline 119 % of control
active: endpoint: mean survival time, dose: 112.0 mg/kg/injection, schedule: Q03HX024 (ip), vehicle: saline 176 % of control | endpoint: median survival time, dose: 26.0 mg/kg/injection, schedule: Q03HX024 (ip), vehicle: saline 150 % of control | endpoint: median survival time, dose: 128.0 mg/kg/injection, schedule: Q01DX009 (ip), vehicle: saline 156 % of control | endpoint: median survival time, dose: 256.0 mg/kg/injection, schedule: Q01DX009 (ip), vehicle: saline 180 % of control | endpoint: median survival time, dose: 400.0 mg/kg/injection, schedule: Q01DX009 (ip), vehicle: saline 155 % of control

CC1(C)C=C(C(Cl)c2ccccc2)C(=O)c2ccccc21 (stereo unspecified)
inactive: endpoint: mean survival time, dose: 100.0 mg/kg/injection, schedule: Q04DX003 (ip), vehicle: Klucel (hydroxypropylcellulose) (HPC) 95 % of control | endpoint: mean survival time, dose: 200.0 mg/kg/injection, schedule: Q04DX003 (ip), vehicle: Klucel (hydroxypropylcellulose) (HPC) 101 % of control | endpoint: mean survival time, dose: 400.0 mg/kg/injection, schedule: Q04DX003 (ip), vehicle: Klucel (hydroxypropylcellulose) (HPC) 101 % of control

O=C(Nc1ccc(C2=NCCN2)cc1)c1ccc(-c2ccc(C(=O)Nc3ccc(C4=NCCN4)cc3)cc2)cc1
inactive: endpoint: mean survival time, dose: 111.0 mg/kg/injection, schedule: Q01DX Z (ip), vehicle: carboxymethylcellulose (CMC) 105 % of control | endpoint: mean survival time, dose: 166.0 mg/kg/injection, schedule: Q01DX Z (ip), vehicle: carboxymethylcellulose (CMC) 101 % of control | endpoint: mean survival time, dose: 250.0 mg/kg/injection, schedule: Q01DX Z (ip), vehicle: carboxymethylcellulose (CMC) 106 % of control | endpoint: mean survival time, dose: 375.0 mg/kg/injection, schedule: Q01DX Z (ip), vehicle: carboxymethylcellulose (CMC) 109 % of control

OC(C[n+]1ccccc1)c1c[nH]c2ccccc12 (stereo unspecified)
inactive: endpoint: mean survival time, dose: 75.0 mg/kg/injection, schedule: Q01DX001 (ip), vehicle: other 107 % of control

CCCCSSCCCC
inactive: endpoint: mean survival time, dose: 50.0 mg/kg/injection, schedule: Q01DX001 (ip), vehicle: Klucel (hydroxypropylcellulose) (HPC) 94 % of control | endpoint: mean survival time, dose: 100.0 mg/kg/injection, schedule: Q01DX001 (ip), vehicle: Klucel (hydroxypropylcellulose) (HPC) 102 % of control | endpoint: mean survival time, dose: 200.0 mg/kg/injection, schedule: Q01DX001 (ip), vehicle: Klucel (hydroxypropylcellulose) (HPC) 105 % of control

CCC[N+](C)(C)C1CCCCC1
inactive: endpoint: mean survival time, dose: 75.0 mg/kg/injection, schedule: Q01DX001 (ip), vehicle: saline 96 % of control and 94 % of control

O=C1C=C(NC(Cc2cnc[nH]2)C(=O)O)c2ccccc2C1=O (stereo unspecified)
inactive: endpoint: mean survival time, dose: 50.0 mg/kg/injection, schedule: Q01DX009 (ip), vehicle: saline with Tween-80 97 % of control | endpoint: mean survival time, dose: 100.0 mg/kg/injection, schedule: Q01DX009 (ip), vehicle: saline with Tween-80 100 % of control | endpoint: mean survival time, dose: 200.0 mg/kg/injection, schedule: Q01DX009 (ip), vehicle: saline with Tween-80 93 % of control

Source: PubChem BioAssay AID248 (DTP/NCI, 2004)
